The source of these data is patent publication US20240140953A1, “INHIBITORS OF MENIN-MLL INTERACTION” (BIOMEA FUSION, INC., priority 2018, published 2024).

The test system of assay [1] is KG-1. Briefly: Long term proliferation, Cell Titer-Glo (Table 3B), KG-1. The format is cell-based. The conditions noted are these: Homo sapiens, KG-1, Cell Titer-Glo.
The next assay has as its system MV4-11. Briefly: Long term proliferation, InCell (Table 3C), MV4-11. Type of assay: cell-based. The settings on record: Homo sapiens, MV4-11, InCell. On the procedure:
(§1) Compounds of invention are tested in the 5 suspension lines by 14-day long-term proliferation assay.
(§2) The compound is tested in 10-pt dose titration (client will determine the starting concentration and the dilution scheme) and the final DMSO concentration is kept at 0.2%.
(§3) Vehicle and media control are also included. All treatments are done in triplicate.
(§4) • 1) On Day 0, in a flat bottom 96-well plate, add 100 μL of cells per well at the densities optimized. • 2) Prepare compounds in DMSO at 500× final concentration. Dilute the compounds with DMSO at the dilution. • 3) Dilute the compounds in media at 3×final concentration. Add 50 μL of compound or DMSO at 3× final concentration to each well. Final volume in each well is 150 μL, and final concentration of DMSO is 0.2%. Also include 3 untreated control wells, by adding 50 μL of media alone. 4) Incubate plates for 96 hours. • 5) Count the cells using the Acumen, with capabilities for 96-well plates. Pipette cells up and down to mix in each well, and add desired volume of cells to a new flat bottom poly-D-lysine 96-well plate. Add Calcein AM at 1 μM final concentration. Let cells sit at RT for 10 mins followed by a quick spin to get cells settled on the bottom of the wells. Incubate the plate for additional 40 mins in the incubator. Take out the plate and read by Acumen. Calculate the cell numbers taken into account the dilution factors. • 6) Split the master plate. To do this take the total viable cell count calculated using step 5). Take the average of the replicates for each dose in order to be used in splitting the cells. • 7) Use a 96 well V-bottom plate to spin down the cells to remove old media and compound to split the cells. Based on the split ratio place the proper amount of media and cells into the V-bottom plate, and spin the plate at 1100 rpm for 5 minutes. • 8) Following the spin remove the media, careful not to disturb the cellpellet. • 9) Re-suspend pellet in 100 μL fresh media, and add to a new 96-well flat bottom plate. • 10) Add fresh compound, in the same manner as Step 3). • 11) Incubate plates for 72 hours. Repeat steps 5)-10) on Day 7. • 12) Incubate plates for 96 hours. Repeat Step 5)-10) on Day 11. • 13) Incubate 72 hours and repeat step 5) to take a final count. • 14) Data Analysis
(§5) To calculate growth for days 4, 7, 11, and 14: • Calculate the split factor for day 4 to 7, day 7 to 11, and day 11-14.

Assay [2] relates to OCI-AML-3. Description: Long term proliferation, Cell Titer-Glo (Table 3B), OCI-AML-3. Type of assay: cell-based. The conditions noted are these: Homo sapiens, OCI-AML-3, Cell Titer-Glo.
For assay [3], the system named is OCI-AML-3. Briefly: Long term proliferation, InCell (Table 3C), OCI-AML-3. The format is cell-based. The settings on record: Homo sapiens, OCI-AML-3, InCell. On the procedure: as §1, §2, §3, §4, §5
Assay [4] has as its system MOLM-13. Briefly: Long term proliferation, InCell (Table 3C), MOLM-13. Type of assay: cell-based. The settings on record: Homo sapiens, MOLM-13, InCell. On the procedure: as §1, §2, §3, §4, §5
The test system of assay [5] is KG-1. Description: Long term proliferation, InCell (Table 3C), KG-1. The format is cell-based. The settings on record: Homo sapiens, KG-1, InCell. As for the experimental part: as §1, §2, §3, §4, §5
Assay [6] concerns MOLM-13. Briefly: Long term proliferation, Cell Titer-Glo (Table 3B), MOLM-13. The conditions noted are these: Homo sapiens, MOLM-13, Cell Titer-Glo. Type of assay: cell-based.
The target in another assay is menin (Homo sapiens (Human), UniProt O00255). Description: Kd (Table 3A). Type of assay: binding.
menin, sequence (O00255 whole entry, species assumed): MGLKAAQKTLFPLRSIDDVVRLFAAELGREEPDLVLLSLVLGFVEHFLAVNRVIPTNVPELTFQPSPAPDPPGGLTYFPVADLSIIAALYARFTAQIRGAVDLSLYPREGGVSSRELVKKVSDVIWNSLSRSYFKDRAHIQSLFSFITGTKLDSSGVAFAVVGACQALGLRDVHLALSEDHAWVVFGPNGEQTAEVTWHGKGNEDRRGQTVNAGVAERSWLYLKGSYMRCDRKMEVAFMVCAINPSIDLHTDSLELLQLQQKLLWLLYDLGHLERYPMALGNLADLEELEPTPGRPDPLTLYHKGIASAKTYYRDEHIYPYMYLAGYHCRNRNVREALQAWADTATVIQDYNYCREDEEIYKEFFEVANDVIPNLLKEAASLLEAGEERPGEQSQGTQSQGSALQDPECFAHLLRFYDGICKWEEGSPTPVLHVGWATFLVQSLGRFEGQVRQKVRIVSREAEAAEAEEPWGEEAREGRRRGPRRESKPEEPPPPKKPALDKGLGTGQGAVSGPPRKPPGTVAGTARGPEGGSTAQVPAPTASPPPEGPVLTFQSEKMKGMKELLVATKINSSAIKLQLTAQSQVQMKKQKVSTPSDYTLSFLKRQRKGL
[7] abbreviates: 96 h, Day 4, read-out: Day 4 IC50.
Where [8] appears, read: 168 h, Day 7, read-out: Day 7 IC50.
Setting [9] is: 264 h, Day 11, read-out: Day 11 IC50.
Where [10] appears, read: 336 h, Day 14, read-out: Day 14 IC50.

Where two headings read alike, the source gives them in different places.

`O=C(Nc1ccc(-c2cc3c(N4CCOCC4)ncnc3[nH]2)cc1)Nc1cc(-c2cccnc2)n[nH]1` [Compound 9, 1-{4-[4-(morpholin-4-yl)-7H-pyrrolo[2,3-d]pyrimidin-6-yl]phenyl}-3-[3-(pyridin-3-yl)-1H-pyrazol-5-yl]urea]: the IC50 in the assay on KG-1 [1] (setting [7]) was greater than 5000 nM; with KG-1 [1] (setting [8]), 4790 nM; in the assay on KG-1 [1] (setting [9]), 1700 nM; in the assay with KG-1 [1] (setting [10]), 1230 nM; with MV4-11 (setting [7]), 500 nM; with MV4-11 (setting [9]) it was 430 nM. For the same compound, the IC50 is 870 nM with OCI-AML-3 [2] (setting [7]); 710 nM in the assay on OCI-AML-3 [2] (setting [8]); 650 nM in the assay on OCI-AML-3 [2] (setting [9]); 720 nM in the assay on OCI-AML-3 [2] (setting [10]); 370 nM in the assay on OCI-AML-3 [3] (setting [7]); 720 nM in the assay with OCI-AML-3 [3] (setting [9]). The IC50 in the assay on MOLM-13 [4] (setting [7]) is 520 nM; with MOLM-13 [4] (setting [9]), 340 nM; in the assay on KG-1 [5] (setting [7]), 3310 nM; in the assay with KG-1 [5] (setting [9]), 2290 nM; in the assay with MOLM-13 [6] (setting [7]), 410 nM; in the assay with MOLM-13 [6] (setting [8]), 240 nM. Also, the IC50 in the assay with MOLM-13 [6] (setting [9]) turned out to be 240 nM; in the assay with MOLM-13 [6] (setting [10]) it was 480 nM.
For `O=C(Cc1cc(-c2cccnc2)n[nH]1)Nc1ccc(-c2nc3c(N4CCOCC4)ncnc3[nH]2)cc1` [Compound 12, N-{4-[6-(morpholin-4-yl)-9H-purin-8-yl]phenyl}-2-[3-(pyridin-3-yl)-1H-pyrazol-5-yl]acetamide], on menin, binding was put at a Kd of 500 ± 200 nM.
